# According to patent publication US8952024B2, “Herbicidal pyrimidone derivatives” (E I du Pont de Nemours and Company, priority 2009, dated 2015):
# Key:
# Assay in all cases: Test B pre-/postemergence plant response
# Assay type in all cases: in vivo
# [1] = tested on: downy bromegrass (Bromus tectorum); conditions: for Bromegrass, Downy plant response rating (0 to 100 scale): 62 g ai/ha, 0 is no effect, 13 to 15 days
# Outline: (§1)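 Seeds were sown in loam soil/sand blend and treated preemergence with compound in non-phytotoxic solvent mixture containing surfactant; postemergence sprays, same formulation, went onto plants 2 to 18 cm (1- to 4-leaf stage) in peat-based planting medium. Greenhouse 13 to 15 days, then visual rating versus untreated controls, 0 (no effect) to 100 (complete control).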
# [2] = tested on: giant foxtail (Setaria faberii); conditions: for Foxtail, Giant plant response rating (0 to 100 scale): 62 g ai/ha, 0 is no effect, 13 to 15 days
# Outline: as §1
# [3] = tested on: goosegrass (Eleusine indica); conditions: for Goosegrass plant response rating (0 to 100 scale): 62 g ai/ha, 0 is no effect, 13 to 15 days
# Outline: as §1
# [4] = tested on: green foxtail (Setaria viridis); conditions: for Foxtail, Green plant response rating (0 to 100 scale): 62 g ai/ha, 0 is no effect, 13 to 15 days
# Outline: as §1
# [5] = tested on: johnsongrass (Sorghum halepense); conditions: for Johnsongrass plant response rating (0 to 100 scale): 62 g ai/ha, 0 is no effect, 13 to 15 days
# Outline: as §1
# kochia (Kochia scoparia) = conditions: for Kochia plant response rating (0 to 100 scale): 62 g ai/ha, 0 is no effect, 13 to 15 days
# Outline: as §1
# [6] = tested on: lambsquarters (Chenopodium album); conditions: for Lambsquarters plant response rating (0 to 100 scale): 62 g ai/ha, 0 is no effect, 13 to 15 days
# Outline: as §1
# [7] = tested on: large crabgrass (Digitaria sanguinalis); conditions: for Crabgrass, Large plant response rating (0 to 100 scale): 62 g ai/ha, 0 is no effect, 13 to 15 days
# Outline: as §1
# [8] = tested on: pigweed (Amaranthus retroflexus); conditions: for Pigweed plant response rating (0 to 100 scale): 62 g ai/ha, 0 is no effect, 13 to 15 days
# Outline: as §1
# [9] = tested on: velvetleaf (Abutilon theophrasti); conditions: for Velvetleaf plant response rating (0 to 100 scale): 62 g ai/ha, postemergence, 0 is no effect, 100 is complete control, 13 to 15 days; for Plant response rating, Velvetleaf: Postemergence, scale 0 to 100 (0 no effect, 100 complete control)
# Outline: as §1
# [10] = tested on: wheat (Triticum aestivum); conditions: for Wheat plant response rating (0 to 100 scale): 62 g ai/ha, postemergence, 0 is no effect, 100 is complete control, 13 to 15 days; for Plant response rating, Wheat: Postemergence, 125 g ai/ha, scale 0 to 100 (0 no effect, 100 complete control)
# Outline: as §1
# [11] = tested on: woolly cupgrass (Eriochloa villosa); conditions: for Cupgrass, Woolly plant response rating (0 to 100 scale): 62 g ai/ha, 0 is no effect, 13 to 15 days
# Outline: as §1
# [12] = tested on: yellow nutsedge (Cyperus esculentus); conditions: for Nutsedge, Yellow plant response rating (0 to 100 scale): 62 g ai/ha, 0 is no effect, 13 to 15 days
# Outline: as §1
# [13] = 31 g ai/ha, postemergence, scale 0 to 100, 0 is no effect, 100 is complete control
# [14] = postemergence, 100 is complete control
# [15] = Postemergence, 125 g ai/ha, scale 0 to 100 (0 no effect, 100 complete control)
# [16] = Postemergence, 250 g ai/ha, scale 0 to 100 (0 no effect, 100 complete control)
smiles,measurement,setting,value
CCCn1c(-c2ccc(F)cc2)ncc(C(=O)C2=C(O)CCCC2=O)c1=O [Compound 102],"Plant response rating, Bromegrass, Downy",[1]; [13],0
same,"Bromegrass, Downy plant response rating (0 to 100 scale)",[1]; [14],10
same,"Plant response rating, Bromegrass, Downy",[1]; [15],10
same,"Plant response rating, Bromegrass, Downy",[1]; [16],30
same,"Plant response rating, Foxtail, Giant",[2]; [13],70
same,"Foxtail, Giant plant response rating (0 to 100 scale)",[2]; [14],75
same,"Plant response rating, Foxtail, Giant",[2]; [15],80
same,"Plant response rating, Foxtail, Giant",[2]; [16],95
same,"Plant response rating, Goosegrass",[3]; [13],55
same,Goosegrass plant response rating (0 to 100 scale),[3]; [14],70
same,"Plant response rating, Goosegrass",[3]; [15],80
same,"Plant response rating, Goosegrass",[3]; [16],90
same,"Plant response rating, Foxtail, Green",[4]; [13],80
same,"Foxtail, Green plant response rating (0 to 100 scale)",[4]; [14],90
same,"Plant response rating, Foxtail, Green",[4]; [15],90
same,"Plant response rating, Foxtail, Green",[4]; [16],95
same,"Plant response rating, Johnsongrass",[5]; [13],20
same,Johnsongrass plant response rating (0 to 100 scale),[5]; [14],25
same,"Plant response rating, Johnsongrass",[5]; [15],60
same,"Plant response rating, Johnsongrass",[5]; [16],75
same,"Plant response rating, Kochia",kochia (Kochia scoparia); [13],65
same,Kochia plant response rating (0 to 100 scale),kochia (Kochia scoparia); [14],70
same,"Plant response rating, Kochia",kochia (Kochia scoparia); [15],100
same,"Plant response rating, Kochia",kochia (Kochia scoparia); [16],100
same,"Plant response rating, Lambsquarters",[6]; [13],95
same,Lambsquarters plant response rating (0 to 100 scale),[6]; [14],98
same,"Plant response rating, Lambsquarters",[6]; [15],100
same,"Plant response rating, Lambsquarters",[6]; [16],100
same,"Plant response rating, Crabgrass, Large",[7]; [13],70
same,"Crabgrass, Large plant response rating (0 to 100 scale)",[7]; [14],80
same,"Plant response rating, Crabgrass, Large",[7]; [15],85
same,"Plant response rating, Crabgrass, Large",[7]; [16],90
same,"Plant response rating, Pigweed",[8]; [13],70
same,Pigweed plant response rating (0 to 100 scale),[8]; [14],70
same,"Plant response rating, Pigweed",[8]; [15],95
same,"Plant response rating, Pigweed",[8]; [16],98
same,Velvetleaf plant response rating (0 to 100 scale),[9],100
same,"Plant response rating, Velvetleaf",[9]; 125 g ai/ha,100
same,"Plant response rating, Velvetleaf",[9]; 250 g ai/ha,100
same,Wheat plant response rating (0 to 100 scale),[10],10
same,"Plant response rating, Wheat",[10],20
same,"Plant response rating, Cupgrass, Woolly",[11]; [13],70
same,"Cupgrass, Woolly plant response rating (0 to 100 scale)",[11]; [14],75
same,"Plant response rating, Cupgrass, Woolly",[11]; [15],75
same,"Plant response rating, Cupgrass, Woolly",[11]; [16],85
same,"Plant response rating, Nutsedge, Yellow",[12]; [13],45
same,"Nutsedge, Yellow plant response rating (0 to 100 scale)",[12]; [14],65
same,"Plant response rating, Nutsedge, Yellow",[12]; [15],75
same,"Plant response rating, Nutsedge, Yellow",[12]; [16],80
COCC(C)n1c(-c2ccccc2)ncc(C(=O)C2=C(O)CCCC2=O)c1=O (centres unmarked) [Compound 107],"Plant response rating, Bromegrass, Downy",[1]; [13],0
same,"Bromegrass, Downy plant response rating (0 to 100 scale)",[1]; [14],5
same,"Plant response rating, Bromegrass, Downy",[1]; [15],10
same,"Plant response rating, Bromegrass, Downy",[1]; [16],30
same,"Plant response rating, Foxtail, Giant",[2]; [13],75
same,"Foxtail, Giant plant response rating (0 to 100 scale)",[2]; [14],80
same,"Plant response rating, Foxtail, Giant",[2]; [15],85
same,"Plant response rating, Foxtail, Giant",[2]; [16],95
same,"Plant response rating, Goosegrass",[3]; [13],75
same,Goosegrass plant response rating (0 to 100 scale),[3]; [14],75
same,"Plant response rating, Goosegrass",[3]; [15],75
same,"Plant response rating, Goosegrass",[3]; [16],85
same,"Plant response rating, Foxtail, Green",[4]; [13],70
same,"Foxtail, Green plant response rating (0 to 100 scale)",[4]; [14],75
same,"Plant response rating, Foxtail, Green",[4]; [15],90
same,"Plant response rating, Foxtail, Green",[4]; [16],98
same,"Plant response rating, Johnsongrass",[5]; [13],60
same,Johnsongrass plant response rating (0 to 100 scale),[5]; [14],70
same,"Plant response rating, Johnsongrass",[5]; [15],70
same,"Plant response rating, Johnsongrass",[5]; [16],90
same,"Plant response rating, Kochia",kochia (Kochia scoparia); [13],98
same,Kochia plant response rating (0 to 100 scale),kochia (Kochia scoparia); [14],98
same,"Plant response rating, Kochia",kochia (Kochia scoparia); [15],100
same,"Plant response rating, Kochia",kochia (Kochia scoparia); [16],100
same,"Plant response rating, Lambsquarters",[6]; [13],90
same,Lambsquarters plant response rating (0 to 100 scale),[6]; [14],100
same,"Plant response rating, Lambsquarters",[6]; [15],100
same,"Plant response rating, Lambsquarters",[6]; [16],100
same,"Plant response rating, Crabgrass, Large",[7]; [13],75
same,"Crabgrass, Large plant response rating (0 to 100 scale)",[7]; [14],85
same,"Plant response rating, Crabgrass, Large",[7]; [15],90
same,"Plant response rating, Crabgrass, Large",[7]; [16],95
same,"Plant response rating, Pigweed",[8]; [13],95
same,Pigweed plant response rating (0 to 100 scale),[8]; [14],100
same,"Plant response rating, Pigweed",[8]; [15],100
same,"Plant response rating, Pigweed",[8]; [16],100
same,Velvetleaf plant response rating (0 to 100 scale),[9],100
same,"Plant response rating, Velvetleaf",[9]; 125 g ai/ha,100
same,"Plant response rating, Velvetleaf",[9]; 250 g ai/ha,100
same,Wheat plant response rating (0 to 100 scale),[10],5
same,"Plant response rating, Wheat",[10],5
same,"Plant response rating, Cupgrass, Woolly",[11]; [13],65
same,"Cupgrass, Woolly plant response rating (0 to 100 scale)",[11]; [14],65
same,"Plant response rating, Cupgrass, Woolly",[11]; [15],75
same,"Plant response rating, Cupgrass, Woolly",[11]; [16],80
same,"Plant response rating, Nutsedge, Yellow",[12]; [13],75
same,"Nutsedge, Yellow plant response rating (0 to 100 scale)",[12]; [14],75
same,"Plant response rating, Nutsedge, Yellow",[12]; [15],75
same,"Plant response rating, Nutsedge, Yellow",[12]; [16],85
